Measured values taken from ChEMBL document CHEMBL5096221, “Discovery of a Highly Potent and Orally Bioavailable STAT3 Dual Phosphorylation Inhibitor for Pancreatic Cancer Treatment” (J Med Chem, 2022).
Active and inactive are the calls of the source. The calls are words filed in the database; no cut-off is given here.

Assays:
BXPC-3 [1] = test: Anti-proliferative activity against human BXPC-3 cells assessed as cell growth inhibition incubated for 72 hrs by MTS assay; assay type: functional, cell-based; settings: BXPC-3, 72 h
[2] = Microsomal stability in rat liver microsomes assessed as intrinsic clearance incubated upto 40 mins in presence of NADPH by LC-MS/MS analysis; assay type: ADME, Microsome; settings: read-out: CLH
Mus musculus [3] = test: In vivo inhibition of STAT3 in BALB/c mouse xenografted with human BXPC-3 cells assessed as inhibition of STAT3 phosphorylation at Tyr 705 at 30 mg/kg,po administrated once daily for 8 weeks by immunohistochemical analysis; assay type: functional, organism-based
[4] = molecular target: T1, Signal transducer and activator of transcription 3 (Homo sapiens, UniProt P40763); test: Inhibition of STAT3 in human BXPC-3 cells assessed as inhibition of IL-6 stimulated STAT3 nuclear translocation by immunofluorescent assay; assay type: cell-based
[5] = molecular target: T1, Signal transducer and activator of transcription 3; test: Inhibition of STAT3 in human Capan-2 cells assessed as inhibition of STAT3 phosphorylation at Tyr 705 at 10 nM incubated for 22 to 24 hrs by western blot analysis; assay type: cell-based; settings: time 22-24 hrs
CFPAC-1 = test: Inhibition of mitochondrial respiration in human CFPAC-1 cells assessed as reduction in maximal respiration rate at 1 to 30 nM incubated for 1 hr by seahorse XF96 flux analyzer; assay type: functional, cell-based; settings: dose 1-30 nM, DDE = dose-dependent effect
[6] = molecular target: T1, Signal transducer and activator of transcription 3; test: Inhibition of STAT3 in human BXPC-3 cells assessed as inhibition of STAT3 phosphorylation at Tyr 705 at 10 nM incubated for 22 to 24 hrs by western blot analysis; assay type: cell-based; settings: time 22-24 hrs
Capan-2 = test: Inhibition of colony formation in human Capan-2 cells at 3 to 10 nM incubated for 5 to 7 days by crystal violet staining assay; assay type: functional, cell-based; settings: dose 3-10 nM, time 5-7 day, DDE = dose-dependent effect
BXPC-3 [7] = test: Antitumor activity against human BXPC-3 cells xenografted BALB/c mouse model assessed as tumor growth inhibition at 30 mg/kg,po administrated once daily for 8 weeks; assay type: functional; settings: BXPC-3, 1344 h, read-out: TGI
Mus musculus [8] = test: In vivo inhibition of STAT3 in BALB/c mouse xenografted with human BXPC-3 cells assessed as inhibition of STAT3 phosphorylation at Ser 727 at 10 mg/kg,po administrated once daily for 8 weeks by immunohistochemical analysis; assay type: functional, organism-based
[9] = molecular target: T1, Signal transducer and activator of transcription 3; test: Inhibition of STAT3 in human Capan-2 cells assessed as inhibition of STAT3 phosphorylation at Ser 727 at 30 nM incubated for 4 to 24 hrs by western blot analysis; assay type: cell-based; settings: time 4-24 hrs, TDE = time-dependent effect
[10] = molecular target: Epidermal growth factor receptor (Homo sapiens, UniProt P00533); test: Inhibition of EGFR (unknown origin)
[11] = molecular target: T1, Signal transducer and activator of transcription 3; test: Inhibition of STAT3 in human BXPC-3 cells assessed as inhibition of STAT3 phosphorylation at Ser 727 at 1 to 30 nM incubated for 22 to 24 hrs by western blot analysis; assay type: cell-based; settings: dose 1-30 nM, time 22-24 hrs, DDE = dose-dependent effect
[12] = molecular target: T1, Signal transducer and activator of transcription 3; test: Thermal stabilization of STAT3 in human BXPC-3 cells at 10 microM at 42.9 degreeC incubated for 1 hrs by cellular thermal shift assay; assay type: cell-based
[13] = molecular target: Mitogen-activated protein kinase 8 (Homo sapiens, UniProt P45983); test: Inhibition of JNK1 (unknown origin)
[14] = Toxicity in BALB/c mouse xenografted with human BXPC-3 cells assessed as effect on heart at 10 mg/kg,po administrated once daily for 8 weeks by H and E staining based microscopic analysis; assay type: organism-based; settings: in vivo, 1344 h
[15] = AUC (0-infinity) in BALB/c mouse at 1 mg/kg,iv measured upto 24 hrs by LC-MS/MS analysis; assay type: ADME, organism-based; design: dose 1 mg/kg, time < 24 hrs, route iv; settings: in vivo
[16] = molecular target: T1, Signal transducer and activator of transcription 3; test: Inhibition of STAT3 in human BXPC-3 cells assessed as inhibition of STAT3 phosphorylation at Ser 727 at 30 nM incubated for 4 to 24 hrs by western blot analysis; assay type: cell-based; settings: time 4-24 hrs, TDE = time-dependent effect
BXPC-3 [17] = test: Antitumor activity against human BXPC-3 cells xenografted BALB/c mouse model assessed as reduction in Ki67 expression at 10 mg/kg,po administrated once daily for 8 weeks by immunohistochemical analysis; assay type: functional, organism-based
[18] = Microsomal stability in dog liver microsomes assessed as half life incubated upto 40 mins in presence of NADPH by LC-MS/MS analysis; assay type: ADME, Canis lupus familiaris, Microsome
BXPC-3 [19] = test: Inhibition of mitochondrial respiration in human BXPC-3 cells at 1 to 30 nM incubated for 1 hr by seahorse XF96 flux analyzer; assay type: functional, cell-based; settings: dose 1-30 nM, DDE = dose-dependent effect
MIA PaCa-2 = test: Anti-proliferative activity against human MIA PaCa-2 cells assessed as cell growth inhibition incubated for 72 hrs by MTS assay; assay type: functional, cell-based; settings: MIA PaCa-2, 72 h
Cytochrome P450 1A2 = molecular target: T2, Cytochrome P450 1A2 (Homo sapiens, UniProt P05177); test: Inhibition of CYP1A2 in human liver microsomes using phenacetin as substrate incubated for 30 mins in presence of NADPH by HPLC analysis; assay type: ADME, Microsome
T2 sequence (P05177 whole entry): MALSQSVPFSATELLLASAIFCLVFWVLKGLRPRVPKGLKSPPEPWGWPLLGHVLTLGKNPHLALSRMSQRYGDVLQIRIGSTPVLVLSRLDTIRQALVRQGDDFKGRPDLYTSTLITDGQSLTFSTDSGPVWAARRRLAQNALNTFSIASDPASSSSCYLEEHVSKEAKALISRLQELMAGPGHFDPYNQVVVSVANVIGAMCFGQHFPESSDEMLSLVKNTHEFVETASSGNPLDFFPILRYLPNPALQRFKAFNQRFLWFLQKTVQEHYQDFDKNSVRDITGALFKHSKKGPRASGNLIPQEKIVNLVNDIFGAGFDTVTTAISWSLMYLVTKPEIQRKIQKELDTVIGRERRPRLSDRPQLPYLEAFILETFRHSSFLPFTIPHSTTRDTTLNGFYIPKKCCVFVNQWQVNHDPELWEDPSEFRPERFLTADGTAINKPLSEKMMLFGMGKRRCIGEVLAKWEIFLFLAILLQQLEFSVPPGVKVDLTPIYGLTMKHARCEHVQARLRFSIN

[20] = AUC (0-24hrs) in BALB/c mouse at 1 mg/kg,iv measured upto 24 hrs by LC-MS/MS analysis; assay type: ADME, organism-based; design: time < 24 hrs, dose 1 mg/kg, route iv; settings: in vivo
[21] = molecular target: T1, Signal transducer and activator of transcription 3; test: Inhibition of STAT3 in human BXPC-3 cells assessed as reduction of c-Myc expression at 1 to 30 nM incubated for 22 to 24 hrs by western blot analysis; assay type: cell-based; settings: dose 1-30 nM, time 22-24 hrs, DDE = dose-dependent effect
[22] = Microsomal stability in human liver microsomes assessed as compound remaining incubated for 60 mins in presence of NADPH by LC-MS/MS analysis; assay type: ADME, Microsome; settings: read-out: Stability
[23] = molecular target: T1, Signal transducer and activator of transcription 3; test: Inhibition of STAT3 in human BXPC-3 cells assessed as inhibition of IL-6 stimulated cytoplasmic STAT3 phosphorylation at Tyr 705 at 1 to 30 nM by western blot assay; assay type: cell-based; settings: dose 1-30 nM
[24] = molecular target: T1, Signal transducer and activator of transcription 3; test: Thermal stabilization of STAT3 in human BXPC-3 cells at 10 microM at 47.4 degreeC incubated for 1 hrs by cellular thermal shift assay; assay type: cell-based
[25] = molecular target: T1, Signal transducer and activator of transcription 3; test: Inhibition of STAT3 in human BXPC-3 cells assessed as reduction of c-Myc expression at 30 nM incubated for 4 to 24 hrs by western blot analysis; assay type: cell-based; settings: time 4-24 hrs, TDE = time-dependent effect

T1 sequence (P40763 whole entry): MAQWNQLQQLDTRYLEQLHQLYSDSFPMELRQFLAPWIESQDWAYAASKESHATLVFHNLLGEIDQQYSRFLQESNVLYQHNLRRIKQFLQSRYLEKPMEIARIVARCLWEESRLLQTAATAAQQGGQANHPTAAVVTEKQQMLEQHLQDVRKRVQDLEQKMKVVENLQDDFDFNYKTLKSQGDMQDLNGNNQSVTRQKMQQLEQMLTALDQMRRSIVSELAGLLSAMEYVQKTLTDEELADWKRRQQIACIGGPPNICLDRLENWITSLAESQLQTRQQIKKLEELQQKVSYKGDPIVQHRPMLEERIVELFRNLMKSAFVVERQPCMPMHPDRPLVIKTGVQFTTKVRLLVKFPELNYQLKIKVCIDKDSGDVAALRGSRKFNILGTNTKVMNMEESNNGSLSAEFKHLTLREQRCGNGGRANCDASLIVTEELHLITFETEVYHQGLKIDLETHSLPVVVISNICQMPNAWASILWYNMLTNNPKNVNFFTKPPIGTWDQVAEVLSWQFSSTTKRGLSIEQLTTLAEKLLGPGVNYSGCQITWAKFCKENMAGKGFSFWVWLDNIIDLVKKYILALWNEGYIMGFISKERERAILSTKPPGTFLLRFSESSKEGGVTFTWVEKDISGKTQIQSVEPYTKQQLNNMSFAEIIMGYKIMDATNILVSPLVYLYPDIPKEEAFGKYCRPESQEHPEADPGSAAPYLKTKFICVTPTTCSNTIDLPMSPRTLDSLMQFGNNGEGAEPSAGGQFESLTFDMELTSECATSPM
Sequence of Epidermal growth factor receptor (P00533 whole entry): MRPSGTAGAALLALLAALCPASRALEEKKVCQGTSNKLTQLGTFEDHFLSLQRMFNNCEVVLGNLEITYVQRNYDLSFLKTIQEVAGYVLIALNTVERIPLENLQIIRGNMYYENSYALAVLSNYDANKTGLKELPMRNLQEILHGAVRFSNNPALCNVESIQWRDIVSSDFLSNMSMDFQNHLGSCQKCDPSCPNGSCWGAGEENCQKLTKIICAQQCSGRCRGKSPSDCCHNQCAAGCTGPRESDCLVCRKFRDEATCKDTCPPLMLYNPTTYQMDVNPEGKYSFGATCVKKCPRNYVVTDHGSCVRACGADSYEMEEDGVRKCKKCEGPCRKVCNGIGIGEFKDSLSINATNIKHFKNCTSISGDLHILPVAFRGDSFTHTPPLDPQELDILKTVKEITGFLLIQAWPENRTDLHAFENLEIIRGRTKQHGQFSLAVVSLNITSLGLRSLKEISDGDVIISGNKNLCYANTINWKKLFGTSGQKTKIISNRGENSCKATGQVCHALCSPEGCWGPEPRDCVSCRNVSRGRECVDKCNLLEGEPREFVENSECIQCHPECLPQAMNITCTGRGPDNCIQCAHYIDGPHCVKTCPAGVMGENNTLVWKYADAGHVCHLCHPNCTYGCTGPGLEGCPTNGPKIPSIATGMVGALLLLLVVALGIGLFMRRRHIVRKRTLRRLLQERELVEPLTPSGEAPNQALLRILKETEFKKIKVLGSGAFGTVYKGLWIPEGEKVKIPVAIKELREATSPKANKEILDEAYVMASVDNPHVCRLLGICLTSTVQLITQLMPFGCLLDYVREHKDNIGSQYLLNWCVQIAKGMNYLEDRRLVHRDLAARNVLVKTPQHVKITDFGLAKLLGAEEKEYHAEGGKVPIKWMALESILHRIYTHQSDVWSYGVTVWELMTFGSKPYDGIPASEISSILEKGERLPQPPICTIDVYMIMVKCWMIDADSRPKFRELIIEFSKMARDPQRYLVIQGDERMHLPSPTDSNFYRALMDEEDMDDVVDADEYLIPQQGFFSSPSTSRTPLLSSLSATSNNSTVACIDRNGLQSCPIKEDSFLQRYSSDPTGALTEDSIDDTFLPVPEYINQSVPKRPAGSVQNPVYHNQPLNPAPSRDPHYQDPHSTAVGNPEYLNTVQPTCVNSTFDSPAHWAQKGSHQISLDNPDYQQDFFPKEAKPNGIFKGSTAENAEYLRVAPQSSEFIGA
Sequence of Mitogen-activated protein kinase 8 (P45983 whole entry): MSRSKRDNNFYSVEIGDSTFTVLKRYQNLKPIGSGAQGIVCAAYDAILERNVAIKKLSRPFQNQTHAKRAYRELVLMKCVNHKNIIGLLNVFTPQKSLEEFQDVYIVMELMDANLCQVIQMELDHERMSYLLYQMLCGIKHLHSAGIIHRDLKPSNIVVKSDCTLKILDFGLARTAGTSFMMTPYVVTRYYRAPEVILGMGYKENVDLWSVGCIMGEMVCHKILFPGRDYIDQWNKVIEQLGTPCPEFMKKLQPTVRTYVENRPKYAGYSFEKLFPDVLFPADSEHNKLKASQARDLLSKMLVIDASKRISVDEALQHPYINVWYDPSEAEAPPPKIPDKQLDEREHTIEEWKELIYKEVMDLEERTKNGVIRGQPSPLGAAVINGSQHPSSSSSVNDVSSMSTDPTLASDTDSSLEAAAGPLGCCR

COc1ccc(-c2noc(-c3cnc(Oc4ccc5cc(C(=O)N6CCN(Cc7ccc(OCC(F)(F)F)cc7)CC6)n(C)c5c4)cn3)n2)cc1
IC50 (BXPC-3 [1]): 0.4 nM
microsomal CLint [2]: 16.9 µL/min/mg
inhibition (Mus musculus [3]): Active
inhibition [4]: Active
inhibition [5]: Active
inhibition (CFPAC-1): Dde
inhibition [6]: Active
inhibition (Capan-2): Dde
inhibition in vivo at 30 mg/kg (BXPC-3 [7]): 74.6%
inhibition (Mus musculus [8]): Active
inhibition [9]: Tde
IC50 [10]: > 10 µM
inhibition [11]: Dde
Activity [12]: Active
IC50 [13]: > 10 µM
Activity [14]: Non-Toxic
AUC(0-inf) [15]: 11600 ng·h/mL
inhibition [16]: Tde
Activity (BXPC-3 [17]): Active
half-life [18]: 75.3 min
inhibition (BXPC-3 [19]): Dde
IC50 (MIA PaCa-2): 2.1 nM
IC50 (Cytochrome P450 1A2): > 50 µM
AUC(0-t) at 24 h [20]: 9510 ng·h/mL
inhibition [21]: Dde
remaining at 1 h [22]: 59.5%
inhibition [23]: Active
Activity [24]: Active
inhibition [25]: Tde
